Measured values taken from patent US4163801A, “Treatment of animals with 2,6-bis(2-hydroxybenzyl)phenols to eradicate trematodes” (ICI Australia Limited, priority 1976, dated 1979).

Columns and labels:
[1] = system: sheep liver fluke (Fasciola hepatica); assay: Flukicidal activity in sheep infected with sheep liver fluke: faecal egg count and post mortem adult fluke count after single dose (Table II); format: in vivo; conditions: for Post Mortem Results: No of adult fluke: sheep liver; for Faecal Egg Count: sheep
Description: Compositions suitable for use as experimental aqueous oral drenches were prepared in the following general manner. A mixture of the required amount of active ingredient was mixed with 40 ml of an aqueous 0.25% w/w solution of "Lubrol E" ("Lubrol E" is a Registered Trade Mark for an octylphenol ethoxylate). The mixture was ball-milled for 30 minutes and the resultant suspension was used as an aqueous drench.
Compositions suitable for use as experimental injectable solutions were prepared by dissolving the chemical in propylene glycol and adjusting the concentration to 10% w/v active ingredient.
Compositions prepared by the methods of Examples 21 and 22 were used as a single dose to test sheep infected with sheep liver fluke (Fasciola hepatica). The number of liver fluke eggs in the faeces was measured at the time of treatment and at selected intervals up to 14 days after treatment. The sheep were killed on day 14 and the number of adult fluke in the liver counted. The amount and structure of active ingredient in each composition and the results of treatment of a sheep with that composition are given in the Table II below. The compositions were administered either by oral drench (oral) or by sub-cutaneous injection (s/c).

immature fluke = assay: Effectiveness against immature fluke (Table II footnotes); format: in vivo, Fasciola hepatica; conditions: oral route

`Oc1c(Br)cc(Br)cc1Cc1cc(Cl)cc(Cc2cc(Br)cc(Br)c2O)c1O` [Compound 11] was tested, and the “Post Mortem Results: No of adult fluke” value ([1]; 12.5 mg/kg oral, killed day 14) was 12, the “Faecal Egg Count” value ([1]; 12.5 mg/kg oral, day 7) was 130 Eggs per g faeces and the “Faecal Egg Count” value ([1]; 12.5 mg/kg oral, day 14) was 40 Eggs per g faeces.
For `Oc1c(Br)cc(Br)cc1Cc1cc(F)cc(Cc2cc(Br)cc(Br)c2O)c1O` [Compound 14], the “Post Mortem Results: No of adult fluke” value ([1]; 4.0 mg/kg oral, killed day 14) was 1, the “Post Mortem Results: No of adult fluke” value ([1]; 12.5 mg/kg oral, killed day 14) was 0 and the “Faecal Egg Count” value ([1]; 4.0 mg/kg oral, day 7) was 0 Eggs per g faeces. The “Faecal Egg Count” value ([1]; 4.0 mg/kg oral, day 14) was 0 Eggs per g faeces, the “Faecal Egg Count” value ([1]; 12.5 mg/kg oral, day 7) was 60 Eggs per g faeces and the “Faecal Egg Count” value ([1]; 12.5 mg/kg oral, day 14) was 0 Eggs per g faeces.
For `Oc1c(Br)cc(Cl)cc1Cc1cc(Cl)cc(Cc2cc(Cl)cc(Br)c2O)c1O` [Compound 12], the “Post Mortem Results: No of adult fluke” value ([1]; 4.0 mg/kg oral, killed day 14) was 0, the “Post Mortem Results: No of adult fluke” value ([1]; 12.5 mg/kg oral, killed day 14) was 0 and the “Faecal Egg Count” value ([1]; 4.0 mg/kg oral, day 7) was 0 Eggs per g faeces. The “Faecal Egg Count” value ([1]; 4.0 mg/kg oral, day 14) was 0 Eggs per g faeces, the “Faecal Egg Count” value ([1]; 12.5 mg/kg oral, day 7) was 40 Eggs per g faeces and the “Faecal Egg Count” value ([1]; 12.5 mg/kg oral, day 14) was 0 Eggs per g faeces.
With `Oc1c(Cl)cc(Cl)cc1Cc1cc(F)cc(Cc2cc(Cl)cc(Cl)c2O)c1O` [Compound 18, 2,6-bis(3,5-dichloro-2-hydroxybenzyl)-4-fluorophenol] the “Post Mortem Results: No of adult fluke” value ([1]; 12.5 mg/kg oral, killed day 14) was 0, the “Faecal Egg Count” value ([1]; 12.5 mg/kg oral, day 7) was 0 Eggs per g faeces and the “Faecal Egg Count” value ([1]; 12.5 mg/kg oral, day 14) was 0 Eggs per g faeces.
With `Oc1c(Br)cc(F)cc1Cc1cc(Br)cc(Cc2cc(F)cc(Br)c2O)c1O` [Compound 25] the “Post Mortem Results: No of adult fluke” value ([1]; 12.5 mg/kg oral, killed day 14) was 0, the “Faecal Egg Count” value ([1]; 12.5 mg/kg oral, day 7) was 0 Eggs per g faeces and the “Faecal Egg Count” value ([1]; 12.5 mg/kg oral, day 14) was 0 Eggs per g faeces.
With `Oc1c(I)cc(F)cc1Cc1cc(F)cc(Cc2cc(F)cc(I)c2O)c1O` [Compound 38] the “Post Mortem Results: No of adult fluke” value ([1]; 6.3 mg/kg oral, killed day 14) was 0, the “Faecal Egg Count” value ([1]; 4.0 mg/kg oral, day 7) was 50 Eggs per g faeces and the “Faecal Egg Count” value ([1]; 4.0 mg/kg oral, day 14) was 80 Eggs per g faeces. For the same compound, the “Faecal Egg Count” value ([1]; 6.3 mg/kg oral, day 7) was 190 Eggs per g faeces and the “Faecal Egg Count” value ([1]; 6.3 mg/kg oral, day 14) was 0 Eggs per g faeces.
With `Oc1c(Br)cc(Cl)cc1Cc1cc(F)cc(Cc2cc(Cl)cc(Br)c2O)c1O` [Compound 4, 2,6-bis(3-bromo-5-chloro-2-hydroxybenzyl)-4-fluorophenol] the “Post Mortem Results: No of adult fluke” value ([1]; 1.0 mg/kg oral, killed day 14) was 0, the “Post Mortem Results: No of adult fluke” value ([1]; 2.0 mg/kg s/c, killed day 14) was 0 and the “Post Mortem Results: No of adult fluke” value ([1]; 3.1 mg/kg oral, killed day 14) was 0. For the same compound, the “Post Mortem Results: No of adult fluke” value ([1]; 6.3 mg/kg oral, killed day 14) was 0, the “Post Mortem Results: No of adult fluke” value ([1]; 12.5 mg/kg oral, Day 29) was 0 and the “Faecal Egg Count” value ([1]; 2.0 mg/kg s/c, day 7) was 20 Eggs per g faeces. For the same compound, the “Faecal Egg Count” value ([1]; 2.0 mg/kg s/c, day 14) was 0 Eggs per g faeces, the “Faecal Egg Count” value ([1]; 3.1 mg/kg oral, day 2) was 0 Eggs per g faeces and the “Faecal Egg Count” value ([1]; 3.1 mg/kg oral, day 7) was 10 Eggs per g faeces. The “Faecal Egg Count” value ([1]; 3.1 mg/kg oral, day 14) was 0 Eggs per g faeces, the “Faecal Egg Count” value ([1]; 6.3 mg/kg oral, day 2) was 70 Eggs per g faeces and the “Faecal Egg Count” value ([1]; 6.3 mg/kg oral, day 7) was 0 Eggs per g faeces. The “Faecal Egg Count” value ([1]; 12.5 mg/kg oral, day 2) was 2520 Eggs per g faeces, the “Faecal Egg Count” value ([1]; 12.5 mg/kg oral, day 7) was 200 Eggs per g faeces and the “Faecal Egg Count” value ([1]; 12.5 mg/kg oral, day 14) was 0 Eggs per g faeces. The “effective against immature fluke” value (immature fluke; 5.0 mg/kg) was 49%, the “effective against immature fluke” value (immature fluke; 7.5 mg/kg) was 85% and the “effective against immature fluke” value (immature fluke; 10 mg/kg) was 98%.
With `Oc1c(I)cc(F)cc1Cc1cc(Cl)cc(Cc2cc(F)cc(I)c2O)c1O` [Compound 24] the “Post Mortem Results: No of adult fluke” value ([1]; 12.5 mg/kg oral, killed day 14) was 0, the “Faecal Egg Count” value ([1]; 12.5 mg/kg oral, day 7) was 20 Eggs per g faeces and the “Faecal Egg Count” value ([1]; 12.5 mg/kg oral, day 14) was 0 Eggs per g faeces.
`O=[N+]([O-])c1cc(Cl)cc(Cc2cc(Cl)cc(Cc3cc(Cl)cc([N+](=O)[O-])c3O)c2O)c1O` [Compound 9, 2,6-Bis(5-chloro-2-hydroxy-3-nitrobenzyl)-4-chlorophenol] was tested, and the “Post Mortem Results: No of adult fluke” value ([1]; 12.5 mg/kg s/c, killed day 14) was 3, the “Faecal Egg Count” value ([1]; 12.5 mg/kg s/c, day 7) was 0 Eggs per g faeces and the “Faecal Egg Count” value ([1]; 12.5 mg/kg s/c, day 14) was 10 Eggs per g faeces.
For `Oc1c(Cl)cc(F)cc1Cc1cc(Cl)cc(Cc2cc(F)cc(Cl)c2O)c1O` [Compound 17], the “Post Mortem Results: No of adult fluke” value ([1]; 12.5 mg/kg oral, killed day 14) was 2, the “Faecal Egg Count” value ([1]; 12.5 mg/kg oral, day 7) was 150 Eggs per g faeces and the “Faecal Egg Count” value ([1]; 12.5 mg/kg oral, day 14) was 20 Eggs per g faeces. The “Faecal Egg Count” value ([1]; 12.5 mg/kg oral, day 18) was 20 Eggs per g faeces.
For `CC(c1cc(Cl)cc(Cl)c1O)c1cc(F)cc(Cc2cc(F)cc(Br)c2O)c1O` (stereo not drawn) [Compound 46], the “Post Mortem Results: No of adult fluke” value ([1]; 12.5 mg/kg oral, killed day 14) was 0, the “Faecal Egg Count” value ([1]; 12.5 mg/kg oral, day 7) was 0 Eggs per g faeces and the “Faecal Egg Count” value ([1]; 12.5 mg/kg oral, day 14) was 0 Eggs per g faeces.
In the case of `CC(=O)Oc1c(Cc2cc(Cl)cc(Br)c2O)cc(F)cc1Cc1cc(Cl)cc(Br)c1O` [Compound 31], the “Post Mortem Results: No of adult fluke” value ([1]; 12.5 mg/kg oral, killed day 14) is reported as 0, the “Faecal Egg Count” value ([1]; 12.5 mg/kg oral, day 7) is reported as 220 Eggs per g faeces and the “Faecal Egg Count” value ([1]; 12.5 mg/kg oral, day 14) is reported as 10 Eggs per g faeces.
In the case of `Oc1c(Br)cc(F)cc1Cc1cc(Cl)cc(Cc2cc(F)cc(Br)c2O)c1O` [Compound 2, 2,6-bis(3-bromo-5-fluoro-2-hydroxybenzyl)-4-chlorophenol], the “Post Mortem Results: No of adult fluke” value ([1]; 3.1 mg/kg oral, killed day 14) is reported as 0, the “Post Mortem Results: No of adult fluke” value ([1]; 6.5 mg/kg oral, killed day 14) is reported as 0 and the “Post Mortem Results: No of adult fluke” value ([1]; 12.5 mg/kg oral, killed day 14) is reported as 0. The “Post Mortem Results: No of adult fluke” value ([1]; 12.5 mg/kg s/c, killed day 14) was 0, the “Faecal Egg Count” value ([1]; 3.1 mg/kg oral, day 7) was 20 Eggs per g faeces and the “Faecal Egg Count” value ([1]; 3.1 mg/kg oral, day 14) was 0 Eggs per g faeces. For the same compound, the “Faecal Egg Count” value ([1]; 6.5 mg/kg oral, day 7) was 40 Eggs per g faeces, the “Faecal Egg Count” value ([1]; 6.5 mg/kg oral, day 14) was 0 Eggs per g faeces and the “Faecal Egg Count” value ([1]; 12.5 mg/kg oral, day 2) was 130 Eggs per g faeces. The “Faecal Egg Count” value ([1]; 12.5 mg/kg oral, day 7) was 0 Eggs per g faeces, the “Faecal Egg Count” value ([1]; 12.5 mg/kg oral, day 13) was 0 Eggs per g faeces and the “Faecal Egg Count” value ([1]; 12.5 mg/kg s/c, day 3) was 3800 Eggs per g faeces. For the same compound, the “Faecal Egg Count” value ([1]; 12.5 mg/kg s/c, day 7) was 0 Eggs per g faeces and the “Faecal Egg Count” value ([1]; 12.5 mg/kg s/c, day 14) was 0 Eggs per g faeces.
With `CC(c1cc(F)cc(Br)c1O)c1cc(Cl)cc(C(C)c2cc(F)cc(Br)c2O)c1O` (stereo not drawn) [Compound 40, 2,6-Bis[1-(3-bromo-5-fluoro-2-hydroxyphenyl)ethyl]-4-chlorophenol] the “Post Mortem Results: No of adult fluke” value ([1]; 12.5 mg/kg oral, killed day 14) was 11, the “Faecal Egg Count” value ([1]; 12.5 mg/kg oral, day 7) was 0 Eggs per g faeces and the “Faecal Egg Count” value ([1]; 12.5 mg/kg oral, day 14) was 0 Eggs per g faeces.
With `Oc1c(Br)cc(F)cc1Cc1cc(F)cc(Cc2cc(F)cc(Br)c2O)c1O` [Compound 22] the “Post Mortem Results: No of adult fluke” value ([1]; 6.3 mg/kg oral, killed day 14) was 0, the “Post Mortem Results: No of adult fluke” value ([1]; 12.5 mg/kg oral, killed day 14) was 0 and the “Faecal Egg Count” value ([1]; 6.3 mg/kg oral, day 7) was 0 Eggs per g faeces. The “Faecal Egg Count” value ([1]; 6.3 mg/kg oral, day 14) was 0 Eggs per g faeces, the “Faecal Egg Count” value ([1]; 12.5 mg/kg oral, day 7) was 1340 Eggs per g faeces and the “Faecal Egg Count” value ([1]; 12.5 mg/kg oral, day 14) was 0 Eggs per g faeces.
In the case of `CC(c1cc(F)cc(Br)c1O)c1cc(Cl)cc(Cc2cc(F)cc(Br)c2O)c1O` (stereo not drawn) [Compound 39], the “Post Mortem Results: No of adult fluke” value ([1]; 3.0 mg/kg oral, killed day 14) is reported as 0, the “Post Mortem Results: No of adult fluke” value ([1]; 6.0 mg/kg oral, killed day 14) is reported as 0 and the “Faecal Egg Count” value ([1]; 3.0 mg/kg oral, day 7) is reported as 210 Eggs per g faeces. For the same compound, the “Faecal Egg Count” value ([1]; 3.0 mg/kg oral, day 14) was 0 Eggs per g faeces, the “Faecal Egg Count” value ([1]; 6.0 mg/kg oral, day 7) was 60 Eggs per g faeces and the “Faecal Egg Count” value ([1]; 6.0 mg/kg oral, day 14) was 0 Eggs per g faeces.
For `CC(c1cc(Cl)cc(Cl)c1O)c1cc(F)cc(Cc2cc(Cl)cc(Br)c2O)c1O` (stereo not drawn) [Compound 30, 2-(3-Bromo-5chloro-2-hydroxybenzyl)-6-[1-(3,5-dichloro-2-hydroxyphenyl)ethyl]-4-fluorophenol], the “Post Mortem Results: No of adult fluke” value ([1]; 12.5 mg/kg oral, killed day 14) was 0, the “Faecal Egg Count” value ([1]; 12.5 mg/kg oral, day 7) was 0 Eggs per g faeces and the “Faecal Egg Count” value ([1]; 12.5 mg/kg oral, day 14) was 0 Eggs per g faeces.
In the case of `Oc1c(I)cc(Cl)cc1Cc1cc(F)cc(Cc2cc(Cl)cc(I)c2O)c1O` [Compound 29], the “Post Mortem Results: No of adult fluke” value ([1]; 6.3 mg/kg oral, killed day 14) is reported as 0, the “Post Mortem Results: No of adult fluke” value ([1]; 12.5 mg/kg oral, killed day 14) is reported as 0 and the “Faecal Egg Count” value ([1]; 6.3 mg/kg oral, day 7) is reported as 0 Eggs per g faeces. For the same compound, the “Faecal Egg Count” value ([1]; 6.3 mg/kg oral, day 14) was 0 Eggs per g faeces, the “Faecal Egg Count” value ([1]; 12.5 mg/kg oral, day 7) was 10 Eggs per g faeces and the “Faecal Egg Count” value ([1]; 12.5 mg/kg oral, day 14) was 0 Eggs per g faeces. For the same compound, the “effective against immature fluke” value (immature fluke; 10 mg/kg) was 81%.
